Assay results from publication PMC11188740, “A small molecule that inhibits the evolution of antibiotic resistance” (NAR Molecular Medicine, 2024).

Columns and labels:
Mfd [1] = biological target: T1, Mfd (Escherichia coli, UniProt P30958); assay: microscale thermophoresis (His-tag labeled Mfd); also RNAP displacement assay with purified Mfd; type: binding
T1 construct: purified His-tagged E. coli Mfd (expressed from pCA24N-Mfd)

Mfd [2] = biological target: T1, Mfd; assay: NADH-coupled ATPase assay, Michaelis–Menten Km without ARM-1; type: biochemical
Description: NADH-coupled ATPase assay, Michaelis–Menten Km without ARM-1 on Mfd | Kinetic constants of Mfd ATPase activity determined using Michaelis–Menten modeling

T1 sequence (P30958 whole entry): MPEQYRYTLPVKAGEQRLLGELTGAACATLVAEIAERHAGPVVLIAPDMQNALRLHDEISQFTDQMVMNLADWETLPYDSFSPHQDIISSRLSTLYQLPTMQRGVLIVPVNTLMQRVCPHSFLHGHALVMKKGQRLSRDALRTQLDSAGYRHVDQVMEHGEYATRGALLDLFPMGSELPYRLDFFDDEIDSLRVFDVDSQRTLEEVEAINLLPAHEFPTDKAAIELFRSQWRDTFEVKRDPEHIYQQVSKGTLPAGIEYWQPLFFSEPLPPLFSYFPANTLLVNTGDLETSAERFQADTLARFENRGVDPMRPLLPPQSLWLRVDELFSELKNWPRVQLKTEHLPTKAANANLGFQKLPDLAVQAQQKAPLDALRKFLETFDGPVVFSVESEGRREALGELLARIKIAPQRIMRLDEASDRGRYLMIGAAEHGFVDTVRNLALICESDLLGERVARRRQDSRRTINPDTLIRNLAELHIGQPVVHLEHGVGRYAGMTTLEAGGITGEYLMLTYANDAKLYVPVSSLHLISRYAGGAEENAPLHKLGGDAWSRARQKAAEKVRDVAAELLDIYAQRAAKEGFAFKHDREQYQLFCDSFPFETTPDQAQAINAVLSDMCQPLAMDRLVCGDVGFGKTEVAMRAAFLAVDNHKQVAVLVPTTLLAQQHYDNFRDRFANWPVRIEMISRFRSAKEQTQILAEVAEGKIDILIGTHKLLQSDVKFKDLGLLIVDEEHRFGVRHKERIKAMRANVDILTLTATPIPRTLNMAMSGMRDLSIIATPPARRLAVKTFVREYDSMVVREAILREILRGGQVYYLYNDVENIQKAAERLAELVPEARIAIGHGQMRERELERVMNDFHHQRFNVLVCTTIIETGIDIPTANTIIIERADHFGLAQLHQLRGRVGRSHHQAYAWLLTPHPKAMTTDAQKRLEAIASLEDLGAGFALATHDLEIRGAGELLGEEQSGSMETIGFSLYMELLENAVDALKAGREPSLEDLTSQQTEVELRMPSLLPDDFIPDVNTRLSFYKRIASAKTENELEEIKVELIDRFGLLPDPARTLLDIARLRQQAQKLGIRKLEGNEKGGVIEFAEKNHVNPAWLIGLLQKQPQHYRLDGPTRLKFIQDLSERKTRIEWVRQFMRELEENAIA

Row | SMILES | Kd (Mfd [1]) | K m / Mean (Mfd [2])
1 | Cc1cc(Br)ccc1-c1ccc(CNCCCN(C)C)o1 [ARM-1] | 4.25 µM | 
2 | Nc1ncnc2c1ncn2[C@@H]1O[C@H](COP(=O)(O)OP(=O)(O)OP(=O)(O)O)[C@@H](O)[C@H]1O [ATP] |  | 0.954
